In the test the target is HIV integrase (Human immunodeficiency virus type 1 group M subtype B, UniProt P04585). Kind of test: HIV integrase inhibitory activity assay (immunoplate, substrate DNA / target DNA, OD405). The conditions noted are these: read-out: Integrase inhibitory activity (IC50, ng/ml) (converted). The test is classed as biochemical. The protocol:
The HIV integrase inhibitory activity was investigated based on the following assay method.
(1) Preparation of DNA Solution
By the same method as that described in Experimental Example 1 of WO 2004/024693, a substrate DNA solution (2 pmol/ml) and a target DNA solution (5 pmol/ml) were prepared. […] Each sequence of a substrate DNA and a target DNA is as described in the same Experimental Example.
(2) Measurement of Inhibition Rate (IC50 Value)
Streptavidin (manufactured by Vector Laboratories) was dissolved in a 0.1M carbonate buffer solution (composition: 90 mM Na2CO3, 10 mM NaHCO3) to a concentration of 40 μg/ml. Each […] of this solution was added to a well of an immunoplate (manufactured by NUNC), and this is allowed to stand at 4° C. overnight to adsorb. Then, each well was washed with a phosphate buffer (composition: 13.7 mM NaCl, 0.27 mM KCl, 0.43 mM Na2HPO4, 0.14 mM KH2PO4) two times, and […] of a phosphate buffer containing 1% skim milk was added to block it for 30 minutes. Further, each well was washed with a phosphate buffer two times, […] of a substrate DNA solution (2 pmol/ml) was added to adsorb at room temperature for 30 minutes while shaking, and this was washed with a phosphate buffer two times and, then, distilled water once.
Then, to each well prepared as described above were added 12 ml of a buffer (composition: 150 mM MOPS (pH7.2), 75 mM MnCl2, 50 mM 2-mercaptoethanol, 25% glycerol, 500 μg/ml bovine serum albumin-fraction V), and 51 ml of a reaction solution prepared from […] of distilled water. Then, 9 ml of an integrase solution (30 pmol) was added, and the mixture was mixed well. To a well as a negative control (NC) was added 9 ml of a diluting solution (composition: 20 mM MOPS (pH7.2), 400 mM potassium glutamete, 1 mM EDTA, 0.1% NP-40, 20% glycerol, 1 mM DTT, 4 M urea), and this was mixed well using a plate mixer. […]
C abs.; absorbance of well of compound
NC abs.: absorbance of NC
PC abs.: absorbance of PC
For `COCCN1C(=O)c2c(O)c(=O)c(C(=O)NCc3ccc(F)cc3COC)cn2CC1O` (stereo not drawn) [Example E-1, 3,9-Dihydroxy-2-(2-methoxy-ethyl)-1,8-dioxo-1,3,4,8-tetrahydro-2H-pyrid[1,2-a]pyrazine-7-carboxylic acid 4-fluoro-2-methoxymethyl-benzylamide], the IC50 was 11.1 nM.

Regarding `O=C(NCc1ccc(F)cc1)c1cn2ccn(Cc3ccc(F)cc3)c(=O)c2c(O)c1=O` [Example A-30, 2-(4-Fluorobenzyl)-9-hydroxy-1,8-dioxo-1,8-dihydro-2H-pyrid[1,2-a]pyrazine-7-carboxylic acid 4-fluoro-benzylamide], the IC50 was 2.29 nM.

Turning to `COCCN1CC(O)n2cc(C(=O)NCc3ccc(F)cc3)c(=O)c(O)c2C1=O` [Example D-41, 4,9-Dihydroxy-2-(2-methoxy-ethyl)-1,8-dioxo-1,3,4,8-tetrahydro-2H-pyrid[1,2-a]pyrazine-7-carboxylic acid 4-fluoro-benzylamide], the IC50 was 7.89 nM.

The values above are taken from US7858788B2, “Bicyclic carbamoylpyridone derivative having HIV integrase inhibitory activity” (Shionogi & Co., Ltd., priority 2005, dated 2010).
